Columns and labels:
Type in all cases: in vivo
Alternaria solani = Alternaria solani / tomato / preventative (Alternaria on tomato); settings: tomato plants cv. Roter Gnom, inoculated two days after application, vs untreated control, read-out: disease control
Protocol: (§1) Alternaria solani/Tomato/Preventative (Alternaria on Tomato) 4-week old tomato plants cv. Roter Gnom are treated with the formulated test compound in a spray chamber. The test plants are inoculated by spraying them with a spore suspension two days after application. The inoculated test plants are incubated at 22/18° C. (day/night) and 95% rh in a greenhouse and the percentage leaf area covered by disease is assessed when an appropriate level of disease appears on untreated check plants (5-7 days after application).

Plasmopara viticola = Plasmopara viticola / grape / preventative (grape downy mildew); settings: grape seedlings cv. Gutedel, inoculated one day after application, vs untreated control, read-out: disease control
Protocol: Plasmopara viticola/Grape/Preventative (Grape Downy Mildew)
5-week old grape seedlings cv. Gutedel are treated with the formulated test compound in a spray chamber. The test plants are inoculated by spraying a sporangia suspension on their lower leaf surface one day after application. The inoculated test plants are incubated at 22° C. and 100% rh in a greenhouse and the percentage leaf area covered by disease is assessed when an appropriate level of disease appears on untreated check plants (6-8 days after application).

[1] = system: Pyrenophora teres (Helminthosporium teres); assay: Pyrenophora teres (Helminthosporium teres) / barley / preventative (net blotch on barley); settings: barley plants cv. Regina, inoculated 2 days after application, vs untreated control, read-out: disease control
Protocol: Pyrenophora teres (Helminthosporium teres)/Barley/Preventative (Net Blotch on Barley) 1-week old barley plants cv. Regina are treated with the formulated test compound in a spray chamber. The test plants are inoculated by spraying them with a spore suspension 2 days after application. The inoculated test plants are incubated at 20° C. and 95% rh and the percentage leaf area covered by disease is assessed when an appropriate level of disease appears on untreated check plants (5-7 days after application).

[2] = system: Phaeosphaeria nodorum (Septoria nodorum); assay: Phaeosphaeria nodorum (Septoria nodorum) / wheat / leaf disc preventative (glume blotch); settings: Parastagonospora nodorum, foliar, wheat leaf segments cv. Kanzler on agar, inoculated 2 days after application, vs untreated control, read-out: disease control
Protocol: Phaeosphaeria nodorum (Septoria nodorum)/Wheat/Leaf Disc Preventative (Glume Blotch) Wheat leaf segments cv. Kanzler are placed on agar in a multiwell plate (24-well format) and sprayed with the formulated test compound diluted in water. The leaf disks are inoculated with a spore suspension of the fungus 2 days after application. The inoculated test leaf disks are incubated at 20° C. and 75% rh under a light regime of 12 h light/12 h darkness in a climate cabinet and the activity of a compound is assessed as percent disease control compared to untreated when an appropriate level of disease damage appears in untreated check leaf disks (5-7 days after application).

[3] = system: Botryotinia fuckeliana (Botrytis cinerea); assay: Botryotinia fuckeliana (Botrytis cinerea) / tomato / preventative (Botrytis on tomato); settings: tomato plants cv. Roter Gnom, inoculated two days after application, vs untreated control, read-out: disease control
Protocol: as §1, with “Botryotinia fuckeliana (Botrytis cinerea)/Tomato/Preventative (Botrytis” for “Alternaria solani/Tomato/Preventative (Alternaria”, “20°” for “22/18°”, “C.” for “C. (day/night)”, “(5-6” for “(5-7”

Row | SMILES | pest or weed control at 200 ppm (Alternaria solani) [%] | pest or weed control at 200 ppm (Plasmopara viticola) [%] | pest or weed control at 200 ppm [1] [%] | pest or weed control at 200 ppm [2] [%] | pest or weed control at 200 ppm [3] [%]
1 | Cc1cccc(-c2cccc(-c3ncc4ccccc4n3)n2)c1 [2/3] | ≥ 80 | ≥ 80 | ≥ 80 |  | 
2 | Cc1ccccc1-c1cccc(-c2ncc3ccccc3n2)n1 [2/4] | ≥ 80 |  |  |  | 
3 | Cc1cccc(-c2cccc(-c3ncc4ccccc4n3)n2)c1C [2/9] | ≥ 80 | ≥ 80 | ≥ 80 |  | 
4 | COc1ccccc1-c1cccc(-c2ncc3ccccc3n2)n1 [2/15] | ≥ 80 |  |  |  | 
5 | Fc1ccc(-c2cccc(-c3ncc4ccccc4n3)n2)c(F)c1 [2/28] | ≥ 80 | ≥ 80 | ≥ 80 |  | 
6 | CCOc1ccccc1-c1cccc(-c2ncc3ccccc3n2)n1 [2/30] | ≥ 80 | ≥ 80 |  |  | 
7 | COc1ccc(F)cc1-c1cccc(-c2ncc3ccccc3n2)n1 [2/32] | ≥ 80 |  | ≥ 80 |  | 
8 | COc1ccc(-c2cccc(-c3ncc4ccccc4n3)n2)c(OC)c1 [2/33] | ≥ 80 |  |  |  | 
9 | COc1ccc(C)cc1-c1cccc(-c2ncc3ccccc3n2)n1 [2/38] | ≥ 80 |  |  | ≥ 80 | 
10 | COc1ccc(OC)c(-c2cccc(-c3ncc4ccccc4n3)n2)c1 [2/46] | ≥ 80 | ≥ 80 |  |  | 
11 | COc1ccc(-c2cccc(-c3ncc4ccccc4n3)n2)c(C)c1 [2/66] | ≥ 80 |  |  | ≥ 80 | 
12 | COc1cccc(F)c1-c1cccc(-c2ncc3ccccc3n2)n1 [2/70] | ≥ 80 | ≥ 80 |  |  | 
13 | Cc1ccc(F)c(-c2cccc(-c3ncc4ccccc4n3)n2)c1 [2/79] |  | ≥ 80 |  |  | 
14 | COc1cc(F)ccc1-c1cccc(-c2ncc3ccccc3n2)n1 [2/90] | ≥ 80 | ≥ 80 | ≥ 80 |  | 
15 | Cc1ccc(-c2cccc(-c3ncc4ccccc4n3)n2)c(C)c1 [2/94] | ≥ 80 | ≥ 80 |  |  | 
16 | Cc1ccc(-c2nc(-c3ncc4ccccc4n3)ccc2C)cc1C [3/11] | ≥ 80 | ≥ 80 |  |  | 
17 | Cc1cc(F)ccc1-c1nc(-c2ncc3ccccc3n2)ccc1C [3/17] | ≥ 80 |  |  |  | 
18 | Cc1ccc(-c2ncc3ccccc3n2)nc1-c1ccccc1Br [3/36] | ≥ 80 | ≥ 80 |  |  | ≥ 80
19 | CCc1ccccc1-c1nc(-c2ncc3ccccc3n2)ccc1C [3/37] | ≥ 80 | ≥ 80 |  |  | 
20 | Cc1ccc(-c2nc(-c3ncc4ccccc4n3)ccc2C)cc1 [3/69] |  | ≥ 80 | ≥ 80 |  | ≥ 80
21 | COc1ccc(-c2nc(-c3ncc4ccccc4n3)ccc2C)cc1 [3/70] | ≥ 80 |  | ≥ 80 |  | 
22 | Cc1ccc(-c2ncc3ccccc3n2)nc1-c1cc(Cl)cc(Cl)c1 [3/73] |  | ≥ 80 | ≥ 80 |  | 
23 | COc1cccc(-c2nc(-c3ncc4ccccc4n3)ccc2C)c1 [3/84] | ≥ 80 | ≥ 80 | ≥ 80 |  | 
24 | Cc1cc(C)cc(-c2nc(-c3ncc4ccccc4n3)ccc2C)c1 [3/86] | ≥ 80 | ≥ 80 | ≥ 80 |  | 
25 | COc1ccc(Cl)cc1-c1nc(-c2ncc3ccccc3n2)ccc1C [3/95] | ≥ 80 | ≥ 80 | ≥ 80 |  | 
26 | c1cc(Oc2ccc3ccccc3c2)nc(-c2ncc3ccccc3n2)c1 [4/10] | ≥ 80 | ≥ 80 |  |  | 

Row | SMILES | pest or weed control at 200 ppm (Alternaria solani) [%] | pest or weed control at 200 ppm (Plasmopara viticola) [%] | pest or weed control at 200 ppm [1] [%] | pest or weed control at 200 ppm [2] [%] | pest or weed control at 200 ppm [3] [%]
27 | COc1ccccc1Oc1cccc(-c2ncc3ccccc3n2)n1 [4/15] |  |  | ≥ 80 |  | 
28 | Cc1ccccc1Oc1cccc(-c2ncc3ccccc3n2)n1 [4/22, 2-(6-o-tolyloxypyridin-2-yl)-quinazoline] | ≥ 80 | ≥ 80 | ≥ 80 |  | 
29 | Clc1ccccc1Oc1cccc(-c2ncc3ccccc3n2)n1 [4/23] |  |  | ≥ 80 |  | 
30 | CSc1ccc(Oc2nc(-c3ncc4ccccc4n3)ccc2C)cc1 [5/4] | ≥ 80 | ≥ 80 |  |  | 
31 | Cc1ccc(-c2ncc3ccccc3n2)nc1Oc1cccc2ccccc12 [5/13] | ≥ 80 |  | ≥ 80 |  | 
32 | Cc1ccc(-c2ncc3ccccc3n2)nc1Cc1ccc(Cl)cc1 [7/18] | ≥ 80 |  | ≥ 80 |  | 
33 | Cc1ccc(-c2ncc3ccccc3n2)nc1Cc1ccccc1Cl [7/19] |  | ≥ 80 |  |  | ≥ 80
34 | COc1cccc(Sc2cccc(-c3ncc4ccccc4n3)n2)c1 [9/2] | ≥ 80 | ≥ 80 | ≥ 80 |  | 
35 | Fc1ccc(Sc2cccc(-c3ncc4ccccc4n3)n2)cc1 [9/4] | ≥ 80 |  | ≥ 80 |  | 
36 | Cc1ccc(-c2ncc3ccccc3n2)nc1Sc1ccccc1 [9/6] | ≥ 80 |  | ≥ 80 |  | 
37 | Cc1ccc(-c2ncc3ccccc3n2)nc1Sc1ccccc1Cl [9/7] | ≥ 80 |  | ≥ 80 |  | 
38 | Clc1ccccc1Sc1cccc(-c2ncc3ccccc3n2)n1 [9/8] | ≥ 80 |  | ≥ 80 |  | 
39 | Cc1ccc(-c2ncc3ccccc3n2)nc1C [10/3] |  | ≥ 80 |  |  | 
40 | Cc1ccc(-c2ncc3cc(N)ccc3n2)nc1-c1ccccc1 [11/2] |  | ≥ 80 |  |  | 
41 | Cc1ccc2nc(-c3ccc(C)c(-c4ccccc4)n3)ncc2c1 [11/4] | ≥ 80 |  | ≥ 80 |  | 
42 | Cc1ccc(-c2ncc3cc(Cl)ccc3n2)nc1-c1ccccc1 [11/5] |  | ≥ 80 | ≥ 80 |  | 
43 | CC(C)Oc1nc(-c2cccc(Cc3ccccc3)n2)nc2ccccc12 [12/9] |  |  |  | ≥ 80 | 
44 | COCCOc1nc(-c2cccc(Cc3ccccc3)n2)nc2ccccc12 [12/10] |  |  |  | ≥ 80 | 
45 | CCCc1nc(-c2cccc(C(Cc3ccccc3)c3ccccc3)n2)nc2ccccc12 (centres unmarked) [12/13] |  |  |  | ≥ 80 | 
46 | CCc1nc(-c2cccc(Cc3ccccc3)n2)nc2ccccc12 [12/15] |  |  |  | ≥ 80 | 
47 | OCc1nc(-c2cccc(Cc3ccccc3)n2)nc2ccccc12 [12/16] |  |  |  | ≥ 80 | 
48 | COc1ccc(-c2ncc3ccccc3n2)nc1-c1ccc(C)cc1 [14/2] |  |  |  | ≥ 80 | 
49 | COc1ccc(-c2nc(-c3ncc4ccccc4n3)ccc2OC)cc1 [14/3] |  |  |  | ≥ 80 | 
50 | COc1ccc(-c2ncc3ccccc3n2)nc1-c1ccccc1 [14/4] |  |  |  | ≥ 80 | 
51 | COc1ccc(-c2ncc3ccccc3n2)nc1-c1ccc(F)cc1 [14/5] |  |  |  | ≥ 80 | 
